Assay results: ChEMBL document CHEMBL4804283, “Stk19 inhibitors for treatment of cancer” (2020)
Active and inactive are the calls of the source. No cut-off for these calls is given here.

Tests used:
[1] = molecular target: T1, Inactive serine/threonine-protein kinase 19 (Homo sapiens) (UniProt P49842); assay: Inhibition of STK19 in human UACC62 cells expressing wild-type NRAS and BRAF V600E mutant at 1-3 uM assessed as NRAS signaling relative to control; format: cell-based; conditions: UACC-62
T1 sequence (whole entry): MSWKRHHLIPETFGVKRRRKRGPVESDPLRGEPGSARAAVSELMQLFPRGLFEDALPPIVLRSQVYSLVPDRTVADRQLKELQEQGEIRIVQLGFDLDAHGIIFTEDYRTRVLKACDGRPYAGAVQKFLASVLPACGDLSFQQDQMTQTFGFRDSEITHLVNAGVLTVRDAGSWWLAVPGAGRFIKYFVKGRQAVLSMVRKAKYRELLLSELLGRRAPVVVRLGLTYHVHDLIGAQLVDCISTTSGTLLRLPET

[2] = test system: SK-MEL-2; assay: Growth inhibition of human SK-MEL-2 cells expressing NRAS Q61R and wild-type BRAF at 1-3 uM relative to control; format: functional, cell-based
[3] = test system: hTERT; assay: Antiproliferative activity against hTERT/p53DD/CDK4 (R24C) immortal melanocytes expressing wild-type STK19 at 3 uM relative to control; format: functional, tissue-based; conditions: Homo sapiens
[4] = molecular target: T1, Inactive serine/threonine-protein kinase 19 (Homo sapiens); assay: Inhibition of STK19 in human SK-MEL-2 cells expressing NRAS Q61R and wild-type BRAF at 100 nM assessed as H3K9 methylation relative to control; format: cell-based
[5] = test system: WM2032; assay: Growth inhibition of human WM2032 cells expressing NRAS Q61R and wild-type BRAF at 1-3 uM relative to control; format: functional, cell-based
[6] = molecular target: T1, Inactive serine/threonine-protein kinase 19 (Homo sapiens); assay: Inhibition of STK19 in human A375 cells expressing wild-type NRAS and BRAF V600E mutant at 1-3 uM assessed as MEK-ERK signaling relative to control; format: cell-based; conditions: A-375
[7] = Toxicity in C57BL/6J mouse assessed as liver histology at 25 mg/kg, administered twice daily for 20 days by H and E staining method; format: organism-based; conditions: in vivo, 480 h
[8] = molecular target: T1, Inactive serine/threonine-protein kinase 19 (Homo sapiens); assay: Inhibition of STK19 in human UACC62 cells expressing wild-type NRAS and BRAF V600E mutant at 1-3 uM assessed as PI3K signaling relative to control; format: cell-based; conditions: UACC-62
[9] = test system: SK-MEL-2; assay: Antitumor activity against human SK-MEL-2 cells xenografted in nude mouse assessed as tumor growth inhibition; format: functional
[10] = molecular target: T1, Inactive serine/threonine-protein kinase 19 (Homo sapiens); assay: Inhibition of STK19 in human WM2032 cells expressing NRAS Q61R and wild-type BRAF at 300 nM assessed as H3K9 methylation relative to control; format: cell-based
[11] = test system: SK-MEL-2; assay: Inhibition of STK19 in nude mouse xenografted with human SK-MEL-2 cells assessed as decrease in NRAS phosphorylation at 25 mg/kg; format: functional, organism-based
[12] = Toxicity in nude mouse xenografted with human SK-MEL-2 cells assessed as increase in animal survival at 50 mg/kg; format: organism-based; conditions: in vivo
[13] = Toxicity in C57BL/6J mouse assessed as effect on creatinine level at 25 mg/kg, administered twice daily for 20 days; format: organism-based; conditions: in vivo, 480 h
[14] = test system: hTERT; assay: Antitumor activity against hTERT/p53DD/CDK4 (R24C) immortal melanocytes expressing STK19 D89N mutant xenografted in nude mouse assessed as reduction in tumor formation; format: functional; conditions: Homo sapiens
[15] = molecular target: T1, Inactive serine/threonine-protein kinase 19 (Homo sapiens); assay: Inhibition of STK19 in human WM2032 cells expressing NRAS Q61R and wild-type BRAF at 1-3 uM assessed as MEK-ERK signaling relative to control; format: cell-based

With `COc1cc2nc(NC3CC3)nc(NC3CCN(C(C)C)CC3)c2cc1OC.O=C(O)C(F)(F)F` the inhibition [1] was “inactive”, the Activity [2] was “Active” and the Activity [3] was “Active”. For the same compound, the inhibition [4] was “inactive”, the Activity [5] was “Active” and the inhibition [6] was “inactive”. For the same compound, the Activity [7] was “Non-Toxic”, the inhibition [8] was “inactive” and the TGI [9] was “Dose-Dependent Effect”. For the same compound, the inhibition [10] was “inactive”, the inhibition [11] was “Active” and the Activity [12] was “Non-Toxic”. The Activity [13] was “Non-Toxic”, the Activity [14] was “Active” and the inhibition [15] was “Active”.
